Data reported in article PMC4460250, “Systems Pharmacology Dissecting Holistic Medicine for Treatment of Complex Diseases: An Example Using Cardiocerebrovascular Diseases Treated by TCM” (Evidence-based Complementary and Alternative Medicine : eCAM, 2015).

How the values were obtained:
[1] = target: PIM1 (Homo sapiens, UniProt P11309); experiment: PIM1 inhibition assay (ligand-binding assay, manufacturer's instructions); assay type: biochemical; conditions: Bliss method, three independent determinations, read-out: IC50 (μM): mean ± SD
Chain of PIM1 (P11309 whole entry): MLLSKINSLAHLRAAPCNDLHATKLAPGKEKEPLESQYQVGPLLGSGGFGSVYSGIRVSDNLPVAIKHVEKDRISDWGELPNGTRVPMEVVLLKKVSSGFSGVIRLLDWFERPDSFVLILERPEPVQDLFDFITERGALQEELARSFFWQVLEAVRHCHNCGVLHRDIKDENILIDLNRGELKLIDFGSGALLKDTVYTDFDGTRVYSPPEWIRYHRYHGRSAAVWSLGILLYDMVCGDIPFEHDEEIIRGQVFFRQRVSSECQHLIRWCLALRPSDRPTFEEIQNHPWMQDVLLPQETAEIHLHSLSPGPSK

[2] = human; PreHIA data set, value given as fraction; cited from earlier work
[3] = Human intestinal absorption percentage values of the PreHIA data set (732 compounds, Table S2); conditions: class from HIA value
[4] = target: T1, PTGS1 (Ovis aries, UniProt P05979); experiment: PTGS1 inhibition assay (ligand-binding assay, manufacturer's instructions); assay type: biochemical; conditions: Bliss method, three independent determinations, read-out: IC50 (μM): mean ± SD
T1 sequence (P05979 25-600): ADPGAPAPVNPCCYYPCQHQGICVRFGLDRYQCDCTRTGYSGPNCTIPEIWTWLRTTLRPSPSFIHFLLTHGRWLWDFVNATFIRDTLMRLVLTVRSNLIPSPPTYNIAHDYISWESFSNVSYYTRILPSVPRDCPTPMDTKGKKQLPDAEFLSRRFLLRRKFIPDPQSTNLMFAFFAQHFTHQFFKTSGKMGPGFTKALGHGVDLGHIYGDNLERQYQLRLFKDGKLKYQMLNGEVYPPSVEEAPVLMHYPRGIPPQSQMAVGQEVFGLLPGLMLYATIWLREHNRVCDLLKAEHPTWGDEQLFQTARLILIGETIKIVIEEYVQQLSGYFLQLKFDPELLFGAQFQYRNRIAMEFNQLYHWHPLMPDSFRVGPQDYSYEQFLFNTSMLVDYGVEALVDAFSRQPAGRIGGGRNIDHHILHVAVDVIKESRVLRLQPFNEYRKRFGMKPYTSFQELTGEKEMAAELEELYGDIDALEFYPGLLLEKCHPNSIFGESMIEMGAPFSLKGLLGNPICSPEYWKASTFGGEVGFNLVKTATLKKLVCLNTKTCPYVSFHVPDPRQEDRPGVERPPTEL
Description: To validate the practicability and efficiency of above methods, the inhibitory effects of drugs on predicted targets were quantified by ligand-binding assays according to the manufacturer's instructions. The drug-target interactions were selected at random and readily available on the market, respectively. […] Targets PIM1 and PTGS1 were respectively purchased from Cayman Chemical, Ann Arbor, MI, USA and CycLex, Japan. The purity of all the compounds is >98%. All drugs were dissolved in DMS and freshly prepared due to loss of activity under long-term storage. IC50 values were determined using the Bliss method with three independent determinations.

SMILES | IC50 [1] | HIA(Human Intestinal Absorption) [2] | Class(High: HIA value ≥0.7; Low: HIA value < 0.7) [3] | IC50 [4]
C[C@@H]1O[C@@H](OC[C@H]2O[C@@H](Oc3c(-c4ccc(O)c(O)c4)oc4cc(O)cc(O)c4c3=O)[C@H](O)[C@@H](O)[C@@H]2O)[C@H](O)[C@H](O)[C@H]1O [Rutin] | 57 ± 5.8 µM | – | – | –
Cc1ccc(Cl)c(Nc2ccccc2C(=O)O)c1Cl [Meclofenamic_acid] | – | 1 | High (High: HIA value ≥0.7) | –
O=c1c(O[C@@H]2O[C@H](CO)[C@@H](O)[C@H](O)[C@H]2O)c(-c2ccc(O)cc2)oc2cc(O)cc(O)c12 [Astragalin] | 62 ± 9.7 µM | – | – | –
O=CN(O)CCCP(=O)(O)O [Fosmidomycin] | – | 0.3 | Low (Low: HIA value < 0.7) | –
CC(=O)Nc1ccc(OC(=O)c2ccccc2OC(C)=O)cc1 [Benorylate] | – | 1 | High (High: HIA value ≥0.7) | –
CC[N+]1(C)[C@@H]2CC(OC(=O)[C@H](CO)c3ccccc3)C[C@H]1[C@@H]1O[C@@H]12 (stereo partly drawn) [Oxitropium] | – | 0.16 | Low (Low: HIA value < 0.7) | –
O=C(O)[C@H](CCc1ccccc1)N[C@H]1CCCN2CCC[C@@H](C(=O)O)N2C1=O [Cilazaprilat] | – | 0.2 | Low (Low: HIA value < 0.7) | –
C[N+]1(C)CCC(=C(c2ccccc2)c2ccccc2)CC1 [Diphemanil] | – | 0.07 | Low (Low: HIA value < 0.7) | –
C[C@H]([C@](O)(Cn1cncn1)c1ccc(F)cc1F)S(C)(=O)=O [Genaconazole] | – | 1 | High (High: HIA value ≥0.7) | –
Oc1ccc(C(O)C2CCCCN2)cc1O (stereo not drawn) [Rimiterol] | – | 0.48 | Low (Low: HIA value < 0.7) | –
CN(C)CCC=C1c2ccccc2COc2ccccc21 [Doxepin] | – | 1 | High (High: HIA value ≥0.7) | –
O=C(O)[C@H]1/C(=C/CO)O[C@@H]2CC(=O)N21 [Clavulanic_acid] | – | 0.75 | High (High: HIA value ≥0.7) | –
C[N+]1(CCCCC[N+]2(C)CCCC2)CCCC1 [Pentolinium] | – | 0.05 | Low (Low: HIA value < 0.7) | –
NS(=O)(=O)c1cc(-c2nnn[nH]2)c(NCc2cccs2)cc1Cl [Azosemide] | – | 0.1 | Low (Low: HIA value < 0.7) | –
CCCC[N+]1(C)[C@@H]2C[C@@H](OC(=O)[C@H](CO)c3ccccc3)C[C@H]1[C@@H]1O[C@@H]12 (stereo partly drawn) [Butylscopolamine] | – | 0.1 | Low (Low: HIA value < 0.7) | –
CC(C)=CCC1C(=O)N(c2ccccc2)N(c2ccccc2)C1=O [Feprazone] | – | 0.9 | High (High: HIA value ≥0.7) | –
CC(C)NCC(O)COc1ccc(CCNC(=O)NC(C)C)cc1 (stereo not drawn) [Pafenolol] | – | 0.29 | Low (Low: HIA value < 0.7) | –
O=c1c(O[C@@H]2O[C@H](CO)[C@@H](O)[C@H](O)[C@H]2O)c(-c2ccc(O)cc2)oc2cc(O)cc(O)c12 [Kaempferol-3-glucoside] | – | – | – | 74 µM
